# Results reported in patent publication US12077503B2, “Substituted cyclic amides and their use as herbicides” (FMC CORPORATION, priority 2015, dated 2024).
# Legend:
# Assay type in all cases: in vivo
# [1] = system: corn (Zea mays); assay: Test G Pre-Emergence Protocol; conditions: Zea mays, pre-emergence, 312 h, evaluated after 13 days; for plant injury at 15.625 g/ha: 15.625 g ai/ha; for plant injury at 15.625 g/ha / plant injury at 250 g/ha: read-out: Corn damage rating (100=total damage to plant; 0=no damage to plant); for plant injury at 62.5 g/ha: 62.5 g ai/ha, 100=total damage to plant, 0=no damage to plant, read-out: plant damage rating, Corn; for plant injury at 250 g/ha: 250 g ai/ha
# How it was run: (§1)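 Under a 24/16° C day/night regime with 14 h light and 65% humidity, sown pots were sprayed after one day with compound (15.625, 62.5 or 250 g/ha; 50:50 acetone/water, 0.5% Tween 20). Damage was assessed visually 13 days later, 0 to 100.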
# [2] = system: velvetleaf (Abutilon theophrasti); assay: Test G Pre-Emergence Protocol; conditions: Abutilon theophrasti, pre-emergence, 312 h, evaluated after 13 days; for pest or weed control at 15.625 g/ha: 15.625 g ai/ha; for pest or weed control at 15.625 g/ha / pest or weed control at 250 g/ha: read-out: Velvetleaf damage rating (100=total damage to plant; 0=no damage to plant); for pest or weed control at 62.5 g/ha: 62.5 g ai/ha, 100=total damage to plant, 0=no damage to plant, read-out: plant damage rating, Velvetleaf; for pest or weed control at 250 g/ha: 250 g ai/ha
# How it was run: as §1
# [3] = system: barnyardgrass (Echinochloa crus-galli); assay: Test G Pre-Emergence Protocol; conditions: Echinochloa crus-galli, pre-emergence, 312 h, evaluated after 13 days; for pest or weed control at 15.625 g/ha: 15.625 g ai/ha, read-out: Barnyard grass damage rating (100=total damage to plant; 0=no damage to plant); for pest or weed control at 62.5 g/ha: 62.5 g ai/ha, 100=total damage to plant, 0=no damage to plant, read-out: plant damage rating, Barnyardgrass; for pest or weed control at 250 g/ha: 250 g ai/ha, read-out: Barnyardgrass damage rating (100=total damage to plant; 0=no damage to plant)
# How it was run: as §1
# [4] = system: ivy-leaved morning glory (Ipomoea hederacea); assay: Test G Pre-Emergence Protocol; conditions: Ipomoea, pre-emergence, 312 h, evaluated after 13 days; for pest or weed control at 15.625 g/ha: 15.625 g ai/ha, read-out: Morning-glory, Ivy-leaved damage rating (100=total damage to plant; 0=no damage to plant); for pest or weed control at 62.5 g/ha: 62.5 g ai/ha, 100=total damage to plant, 0=no damage to plant, read-out: plant damage rating, Morningglory, Ivy-leaved; for pest or weed control at 250 g/ha: 250 g ai/ha, read-out: Morningglory, Ivy-leaved damage rating (100=total damage to plant; 0=no damage to plant)
# How it was run: as §1
# [5] = system: giant foxtail (Setaria faberi); assay: Test G Pre-Emergence Protocol; conditions: Setaria faberi, pre-emergence, 312 h, evaluated after 13 days; for pest or weed control at 15.625 g/ha: 15.625 g ai/ha; for pest or weed control at 15.625 g/ha / pest or weed control at 250 g/ha: read-out: Foxtail, Giant damage rating (100=total damage to plant; 0=no damage to plant); for pest or weed control at 62.5 g/ha: 62.5 g ai/ha, 100=total damage to plant, 0=no damage to plant, read-out: plant damage rating, Foxtail, Giant; for pest or weed control at 250 g/ha: 250 g ai/ha
# How it was run: as §1
# [6] = system: redroot pigweed (Amaranthus retroflexus); assay: Test G Pre-Emergence Protocol; conditions: Amaranthus retroflexus, pre-emergence, 312 h, evaluated after 13 days; for pest or weed control at 15.625 g/ha: 15.625 g ai/ha; for pest or weed control at 15.625 g/ha / pest or weed control at 250 g/ha: read-out: Pigweed, Redroot damage rating (100=total damage to plant; 0=no damage to plant); for pest or weed control at 62.5 g/ha: 62.5 g ai/ha, 100=total damage to plant, 0=no damage to plant, read-out: plant damage rating, Pigweed, Redroot; for pest or weed control at 250 g/ha: 250 g ai/ha
# How it was run: as §1
# [7] = system: corn (Zea mays); assay: Test G Post-Emergence Protocol; conditions: Zea mays, post-emergence, 312 h; for plant injury at 15.625 g/ha: 15.625 g ai/ha, evaluated after 13 days (100=total damage to plant; 0=no damage to plant), read-out: Corn damage rating; for plant injury at 62.5 g/ha: 62.5 g ai/ha, read-out: Corn damage rating (100=total damage to plant; 0=no damage to plant); for plant injury at 62.5 g/ha / plant injury at 250 g/ha: evaluated after 13 days; for plant injury at 250 g/ha: 250 g ai/ha, read-out: damage to plant, Corn (100=total damage to plant; 0=no damage to plant)
# How it was run: (§2)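 Values are percent visual injury at 13 days after treatment (0 none, 100 total). Treatment was a post-emergence spray at 15.625, 62.5 or 250 g/ha on 8-day-old pot plants kept at 24/16 °C.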
# [8] = system: velvetleaf (Abutilon theophrasti); assay: Test G Post-Emergence Protocol; conditions: Abutilon theophrasti, post-emergence, 312 h; for pest or weed control at 15.625 g/ha: 15.625 g ai/ha, evaluated after 13 days (100=total damage to plant; 0=no damage to plant), read-out: Velvetleaf damage rating; for pest or weed control at 62.5 g/ha: 62.5 g ai/ha, read-out: Velvetleaf damage rating (100=total damage to plant; 0=no damage to plant); for pest or weed control at 62.5 g/ha / pest or weed control at 250 g/ha: evaluated after 13 days; for pest or weed control at 250 g/ha: 250 g ai/ha, read-out: damage to plant, Velvetleaf (100=total damage to plant; 0=no damage to plant)
# How it was run: as §2
# [9] = system: barnyardgrass (Echinochloa crus-galli); assay: Test G Post-Emergence Protocol; conditions: Echinochloa crus-galli, post-emergence, 312 h; for pest or weed control at 15.625 g/ha: 15.625 g ai/ha, evaluated after 13 days (100=total damage to plant; 0=no damage to plant), read-out: Barnyardgrass damage rating; for pest or weed control at 62.5 g/ha: 62.5 g ai/ha, read-out: Barnyardgrass damage rating (100=total damage to plant; 0=no damage to plant); for pest or weed control at 62.5 g/ha / pest or weed control at 250 g/ha: evaluated after 13 days; for pest or weed control at 250 g/ha: 250 g ai/ha, read-out: damage to plant, Barnyardgrass (100=total damage to plant; 0=no damage to plant)
# How it was run: as §2
# [10] = system: ivy-leaved morning glory (Ipomoea hederacea); assay: Test G Post-Emergence Protocol; conditions: Ipomoea, post-emergence, 312 h; for pest or weed control at 15.625 g/ha: 15.625 g ai/ha, evaluated after 13 days (100=total damage to plant; 0=no damage to plant), read-out: Morningglory, Ivy-leaved damage rating; for pest or weed control at 62.5 g/ha: 62.5 g ai/ha, read-out: Morningglory, Ivy-leaved damage rating (100=total damage to plant; 0=no damage to plant); for pest or weed control at 62.5 g/ha / pest or weed control at 250 g/ha: evaluated after 13 days; for pest or weed control at 250 g/ha: 250 g ai/ha, read-out: damage to plant, Morningglory, Ivy-leaved (100=total damage to plant; 0=no damage to plant)
# How it was run: as §2
# [11] = system: giant foxtail (Setaria faberi); assay: Test G Post-Emergence Protocol; conditions: Setaria faberi, post-emergence, 312 h; for pest or weed control at 15.625 g/ha: 15.625 g ai/ha, evaluated after 13 days (100=total damage to plant; 0=no damage to plant), read-out: Foxtail, Giant damage rating; for pest or weed control at 62.5 g/ha: 62.5 g ai/ha, read-out: Foxtail, Giant damage rating (100=total damage to plant; 0=no damage to plant); for pest or weed control at 62.5 g/ha / pest or weed control at 250 g/ha: evaluated after 13 days; for pest or weed control at 250 g/ha: 250 g ai/ha, read-out: damage to plant, Foxtail, Giant (100=total damage to plant; 0=no damage to plant)
# How it was run: as §2
# [12] = system: redroot pigweed (Amaranthus retroflexus); assay: Test G Post-Emergence Protocol; conditions: Amaranthus retroflexus, post-emergence, 312 h; for pest or weed control at 15.625 g/ha: 15.625 g ai/ha, evaluated after 13 days (100=total damage to plant; 0=no damage to plant), read-out: Pigweed, Redroot damage rating; for pest or weed control at 62.5 g/ha: 62.5 g ai/ha, read-out: Pigweed, Redroot damage rating (100=total damage to plant; 0=no damage to plant); for pest or weed control at 62.5 g/ha / pest or weed control at 250 g/ha: evaluated after 13 days; for pest or weed control at 250 g/ha: 250 g ai/ha, read-out: damage to plant, Pigweed, Redroot (100=total damage to plant; 0=no damage to plant)
# How it was run: as §2
structure (smiles),measurement,setting,value
CN1C[C@H](c2ccc(C(F)(F)F)cc2)[C@@H](C(=O)Nc2ncccc2[N+](=O)[O-])C1=O (racemic) [Compound 1431],plant injury at 15.625 g/ha,[1],0%
same,plant injury at 62.5 g/ha,[1],0%
same,plant injury at 250 g/ha,[1],0%
same,pest or weed control at 15.625 g/ha,[2],0%
same,pest or weed control at 62.5 g/ha,[2],0%
same,pest or weed control at 250 g/ha,[2],0%
same,pest or weed control at 15.625 g/ha,[3],0%
same,pest or weed control at 62.5 g/ha,[3],0%
same,pest or weed control at 250 g/ha,[3],0%
same,pest or weed control at 15.625 g/ha,[4],0%
same,pest or weed control at 62.5 g/ha,[4],0%
same,pest or weed control at 250 g/ha,[4],0%
same,pest or weed control at 15.625 g/ha,[5],0%
same,pest or weed control at 62.5 g/ha,[5],0%
same,pest or weed control at 250 g/ha,[5],0%
same,pest or weed control at 15.625 g/ha,[6],0%
same,pest or weed control at 62.5 g/ha,[6],0%
same,pest or weed control at 250 g/ha,[6],0%
same,plant injury at 15.625 g/ha,[7],0%
same,plant injury at 62.5 g/ha,[7],0%
same,plant injury at 250 g/ha,[7],0%
same,pest or weed control at 15.625 g/ha,[8],0%
same,pest or weed control at 62.5 g/ha,[8],0%
same,pest or weed control at 250 g/ha,[8],10%
same,pest or weed control at 15.625 g/ha,[9],0%
same,pest or weed control at 62.5 g/ha,[9],0%
same,pest or weed control at 250 g/ha,[9],0%
same,pest or weed control at 15.625 g/ha,[10],0%
same,pest or weed control at 62.5 g/ha,[10],0%
same,pest or weed control at 250 g/ha,[10],0%
same,pest or weed control at 15.625 g/ha,[11],0%
same,pest or weed control at 62.5 g/ha,[11],0%
same,pest or weed control at 250 g/ha,[11],0%
same,pest or weed control at 15.625 g/ha,[12],0%
same,pest or weed control at 62.5 g/ha,[12],0%
same,pest or weed control at 250 g/ha,[12],40%
CCOC(=O)c1cccc([C@H]2CN(C)C(=O)[C@@H]2C(=O)Nc2ccccc2F)c1 (racemic) [Compound 1438],plant injury at 15.625 g/ha,[1],0%
same,plant injury at 62.5 g/ha,[1],0%
same,plant injury at 250 g/ha,[1],0%
same,pest or weed control at 15.625 g/ha,[2],0%
same,pest or weed control at 62.5 g/ha,[2],0%
same,pest or weed control at 250 g/ha,[2],0%
same,pest or weed control at 15.625 g/ha,[3],0%
same,pest or weed control at 62.5 g/ha,[3],0%
same,pest or weed control at 250 g/ha,[3],0%
same,pest or weed control at 15.625 g/ha,[4],0%
same,pest or weed control at 62.5 g/ha,[4],0%
same,pest or weed control at 250 g/ha,[4],0%
same,pest or weed control at 15.625 g/ha,[5],0%
same,pest or weed control at 62.5 g/ha,[5],0%
same,pest or weed control at 250 g/ha,[5],20%
same,pest or weed control at 15.625 g/ha,[6],0%
same,pest or weed control at 62.5 g/ha,[6],0%
same,pest or weed control at 250 g/ha,[6],0%
same,plant injury at 15.625 g/ha,[7],0%
same,plant injury at 62.5 g/ha,[7],0%
same,plant injury at 250 g/ha,[7],0%
same,pest or weed control at 15.625 g/ha,[8],0%
same,pest or weed control at 62.5 g/ha,[8],0%
same,pest or weed control at 250 g/ha,[8],0%
same,pest or weed control at 15.625 g/ha,[9],0%
same,pest or weed control at 62.5 g/ha,[9],0%
same,pest or weed control at 250 g/ha,[9],0%
same,pest or weed control at 15.625 g/ha,[10],0%
same,pest or weed control at 62.5 g/ha,[10],0%
same,pest or weed control at 250 g/ha,[10],0%
same,pest or weed control at 15.625 g/ha,[11],0%
same,pest or weed control at 62.5 g/ha,[11],0%
same,pest or weed control at 250 g/ha,[11],0%
same,pest or weed control at 15.625 g/ha,[12],0%
same,pest or weed control at 62.5 g/ha,[12],0%
same,pest or weed control at 250 g/ha,[12],10%
